Tested on: PDOTS
Assay: Bead-based cytokine profiling of PDOTS after ex vivo checkpoint blockade
Type: cell-based, human
Experimental: Fresh tumor specimens (murine and human patients) were received in media (DMEM) on ice and minced in a 10 cm dish (on ice) using sterile forceps and scalpel. Minced tumor was resuspended in DMEM ([…], […] sodium pyruvate, 1:100 penicillin-streptomycin) (Corning CellGro, Manassas, Va.) +10% FBS (Gemini Bio-Products, West Sacramento, Calif.), 100 U/mL collagenase type IV (Life Technologies, Carlsbad, Calif.), and 15 mM HEPES (Life Technologies, Carlsbad, Calif.), except for CT26 tumors that were prepared in RPMI. Samples were pelleted and resuspended in 10-20 mL media. Red blood cells were removed from visibly bloody samples using RBC Lysis Buffer (Boston Bio-Products, Ashland, Mass.). […]
Two multiplex assays were performed utilizing a bead-based immunoassay approach, the Bio-Plex Pro™ Human Cytokine 40-plex Assay (Cat #171AK99MR2) and Bio-Plex Pro™ Mouse Cytokine Panel 1, 23-plex (Cat #M60009RDPD) on a Bio-plex 200 system (Cat #171000201). […] Fold changes relative to the MDOT/PDOT control were calculated and plotted as log 2FC. Lower and upper limits of quantitation (LLOQ/ULOQ) were imputed from standard curves for cytokines above or below detection. […]

Substance | PDOTS samples with upregulation of CCL19 and CXCL13 (Day 3 cytokine release, n=28, pembrolizumab 250 μg/mL) | CCL19/CXCL13 induction in PDOTS (Day 3, ipilimumab 50 μg/mL alone or with pembrolizumab 250 μg/mL)
PD-1 blockade: PDOTS were treated with anti-PD-1 (pembrolizumab, 250 μg/mL) | 23/28 | 
CTLA-4 blockade: PDOTS were treated with anti-CTLA-4 (ipilimumab, 50 μg/mL) |  | comparatively minimal

From US11572590B2, “Methods for evaluating tumor cell spheroids using 3D microfluidic cell culture device” (Dana-Farber Cancer Institute, Inc., priority 2017, dated 2023)
